Values of other authors, collected in paper PMC9088311, “Cyclic Thiosulfonates for Thiol-Mediated Uptake: Cascade Exchangers, Transporters, Inhibitors” (JACS Au, 2022).

Tested on: lentivirus with D614G SC2 spike protein, A549 cells overexpressing ACE2 and TMPRSS2
Details: 50 μM; cited from earlier work

O=S1(=O)C[C@H](O)[C@H](O)CS1 (stereo in doubt) [Compound 3, (4S,5R)-4,5-dihydroxy-1,2-dithiane-1,1-dioxide]
inhibition of luciferase expression, thus SC2 lentivector entry: ≈ 60%
